Legend:
[1] = molecular target: T1, Retinoic acid receptor RXR-beta (Homo sapiens, UniProt P28702); assay: Binding affinity towards recombinantly expressed Retinoic acid receptor RXR-beta in baculoviral system, by using 5 nM [3H]targretin in a competitive binding assay
T1 sequence (P28702 whole entry): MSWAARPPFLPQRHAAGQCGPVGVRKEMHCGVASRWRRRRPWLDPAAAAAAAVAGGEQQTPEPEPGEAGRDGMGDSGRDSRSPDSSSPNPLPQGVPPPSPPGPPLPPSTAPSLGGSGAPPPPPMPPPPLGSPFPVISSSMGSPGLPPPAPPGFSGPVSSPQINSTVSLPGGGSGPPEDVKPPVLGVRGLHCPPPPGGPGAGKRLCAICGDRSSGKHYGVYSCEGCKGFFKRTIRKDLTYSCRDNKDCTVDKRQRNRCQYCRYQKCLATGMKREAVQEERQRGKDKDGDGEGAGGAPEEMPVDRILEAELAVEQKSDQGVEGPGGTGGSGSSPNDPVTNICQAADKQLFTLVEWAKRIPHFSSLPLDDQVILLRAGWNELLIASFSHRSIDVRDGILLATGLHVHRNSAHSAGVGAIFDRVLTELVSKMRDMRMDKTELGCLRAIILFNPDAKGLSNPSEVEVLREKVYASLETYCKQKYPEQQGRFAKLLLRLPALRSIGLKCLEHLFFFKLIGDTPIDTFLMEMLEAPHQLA

[2] = molecular target: T1, Retinoic acid receptor RXR-beta; assay: Transcriptional activity was evaluated in CV-1 cells transfected with expression vector for Retinoic acid receptor RXR-beta
[3] = molecular target: T2, Retinoic acid receptor RXR-alpha (Homo sapiens, UniProt P19793); assay: Transcriptional activity was evaluated in CV-1 cells transfected with expression vector for Retinoic acid receptor RXR-alpha
T2 sequence (P19793 whole entry): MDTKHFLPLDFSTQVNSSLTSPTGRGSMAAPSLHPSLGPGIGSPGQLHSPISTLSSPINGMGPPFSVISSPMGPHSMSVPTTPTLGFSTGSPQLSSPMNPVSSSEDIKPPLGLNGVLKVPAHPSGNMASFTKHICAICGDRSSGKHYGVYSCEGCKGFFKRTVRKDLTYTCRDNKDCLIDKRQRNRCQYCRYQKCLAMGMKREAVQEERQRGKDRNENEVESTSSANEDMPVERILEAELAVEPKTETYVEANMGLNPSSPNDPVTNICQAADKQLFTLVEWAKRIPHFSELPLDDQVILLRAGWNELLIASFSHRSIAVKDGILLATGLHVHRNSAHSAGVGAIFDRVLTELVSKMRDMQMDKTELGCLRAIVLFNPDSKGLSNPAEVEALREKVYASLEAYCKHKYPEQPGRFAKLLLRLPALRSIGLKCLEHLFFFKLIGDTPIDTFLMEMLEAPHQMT

[4] = molecular target: T3, Retinoic acid receptor RXR-gamma (Homo sapiens, UniProt P48443); assay: Transcriptional activity was evaluated in CV-1 cells transfected with expression vector for Retinoic acid receptor RXR-gamma
T3 sequence (P48443 whole entry): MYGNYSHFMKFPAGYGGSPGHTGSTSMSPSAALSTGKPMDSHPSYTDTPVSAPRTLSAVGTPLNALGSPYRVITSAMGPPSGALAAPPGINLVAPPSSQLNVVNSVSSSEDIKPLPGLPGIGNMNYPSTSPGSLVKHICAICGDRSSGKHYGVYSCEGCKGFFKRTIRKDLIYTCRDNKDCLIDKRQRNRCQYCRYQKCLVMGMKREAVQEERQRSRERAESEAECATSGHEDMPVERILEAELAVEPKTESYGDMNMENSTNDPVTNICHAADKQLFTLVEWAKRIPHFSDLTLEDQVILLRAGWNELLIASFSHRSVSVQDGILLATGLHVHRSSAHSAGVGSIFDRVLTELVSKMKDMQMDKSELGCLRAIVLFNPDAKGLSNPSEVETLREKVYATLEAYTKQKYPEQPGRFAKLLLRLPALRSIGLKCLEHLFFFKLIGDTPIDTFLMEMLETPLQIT

Ki [1]: 120 nM
EC50 [2]: 165 nM
EC50 [3]: 46 nM
EC50 [4]: 34 nM
SMILES: CCO/N=C(/c1ccc(C(=O)O)cc1)c1cc2c(cc1C)C(C)(C)CCC2(C)C

— BindingDB's records for doi:10.1021/jm980621r (Ligand Pharmaceuticals, 1999)
